Reference: patent US10112918B2, “15-oxospiramilactone derivatives, preparation method and uses thereof” (Kunming Institute of Botany, The Chinese Academy of Sciences, priority 2013, dated 2018)
Where two headings read alike, the source gives them in different places.

Legend:
Assay type in all cases: cell-based
[1] = tested on: MCF-7 (human breast cancer cells); assay: MTT inhibition of tumor cell growth, MCF-7; conditions: Homo sapiens
Experimental: (§1) 1. Inoculating cells: the culture medium DMEM or RMPI1640 containing 10% fetal bovine serum was used to prepare a single cell suspension, and the cell suspension was inoculated to a 96-well plate at 5000-10000 cells per well (100 μl for each well); Adherent cells were inoculated and cultured for 12 h in advance. HL-60 (human promyelocytic leukemia cells), SMMC-7721 (human hepatoma cells), A-549 (Human lung adenocarcinoma cells), MCF-7 (human breast cancer cells), SW-480 (human colon cancer cells) were purchased from the Cell Bank of the Chinese Academy of Sciences, Shanghai.
(§2) 2. The solution of the compound to be tested (40 μM for primary screening; 5 concentrations were set for gradient re-screening for the compounds which achieve about 50% inhibition of tumor cell growth at 40 μM) was added, the final volume of each well was 200 μl, and triplicate wells were set for each test.
(§3) 3. Coloration: After culturing at 37° C. for 48 h, MTT solution (20 μl) was added to each well. After incubation for another 4 h, the culture was stopped. The supernatant in each well was pipetted and discarded, and 200 μl SDS solution (10%) was added to each well. Incubation was performed overnight (at 37° C.), to completely dissolve the crystal.
(§4) 4. Colorimetric assay: ELISA Reader (Bio-Rad 680) was used to obtain the light absorption for each well at a wavelength of 595 nm, the results were recorded. A cell growth curve was plotted with the concentration as abscissa and the cell survival percentage as ordinate. The two-point method (Reed and Muench method) was used to calculate the IC50 of the compound.

[2] = tested on: SMMC-7721 (human hepatoma cells); assay: MTT inhibition of tumor cell growth, SMMC-7721; conditions: Homo sapiens
Experimental: as §1, §2, §3, §4

[3] = tested on: Wnt signaling pathway (Top-Flash reporter gene); assay: Top-Flash Wnt reporter gene assay in HEK293T cells with Wnt3a conditioned medium; conditions: Homo sapiens, HEK-293T, 6 h
Experimental: HEK293T cells were cultured in DMEM containing 10% fetal bovine serum (Invitrogen) at 37° C., 5% CO2. The cells were passaged every other day. The density was retained at 70˜80% during passage. L cell line (CRL-2647, purchased from the gene bank of ATCC, the US) and the control cell line (CRL-2648, purchased from ATCC, US), which stably secreted mouse Wnt3a protein, were cultured in DMEM containing 50 ug/ml G418 and 10% fetal bovine serum, at 37° C., 5% CO2. When the cells grew to a density of about 70%, the medium was replaced with DMEM containing 10% fetal bovine serum. After continuous culture for 4 days, the culture was collected and centrifuged, and the supernatant was kept so that the Wnt conditioned medium was obtained. After titration assay, the conditioned medium was quick-frozen in liquid nitrogen, and placed at −80° C. for long-term storage, so that the titer was kept unchanged.
The cells were seeded to a 48-well plate at a density of […] cells per well, and transfected 20 h later. The reagents for plasmid transfection were calculated based on the amount in each well of the 48-well plate as following: the total amount of plasmid was 125 ng/well; the plasmid was first added to a serum-free medium (25 μL/well) and mixed well; PLUS reagent (Invitrogen) was then added in an amount of 0.5 μL/well and mixed well, then stood for 15 min; Lipofectamine (Invitrogen) liposome was added in an amount of 0.5 μL/well to serum-free DMEM medium (25 μL/well), and then mixed with the solution containing the plasmid and the PLUS, and stood for 15 min. The cells were cultured in serum-free DMEM medium (100 μL/well), and the final mixture of plasmid, PLUS and Lipofectamine were added to the cells. After incubation for 3 h, the transfection was stopped by the medium containing 10% fetal bovine serum (200 μL/well).
The HEK293T cells used for activity assay of the report gene were transfected by the method as shown in 2). Activity assay of Wnt reporter gene: the amount of plasmid for transfection was 5 ng/well for TOP-flash and 5 ng/well for GFP plasmid as internal standard, with lacZ added to reach a total amount of 125 ng/well. […] After treating for 6 h, Boehringer Mannheim Luci-ferase Assay Kit was used to lyse cells (200 μL/well). 50 μL from each well was pipetted into a 96-well plate. The indensity of GFP protein in the cell lysate was measured by fluorimeter FL600 (BIO-TEK Inc. Winooski, Vt.), and taken as internal standard for cell transfection efficiency. 10 μL substrate of luciferase was then added to each well, and the activity of luciferase was measured by Micro Lumate Plus (Perkin Elmer Inc. Wellesley, Mass.) luminometer. Finally, GFP indensity was used as internal standard to calibrate the activity of luciferase, i.e. the activity of Wnt reporter gene.
Calculation of IC50 (taking the calculation of IC50 of the Wnt signaling pathway for example): background (the activity as measured in the groups treated with a conditioned medium containing DMSO only) was subtracted from the reporter gene activity as measured in the groups treated by Wnt3a conditioned medium with or without the compound to be tested at different concentrations; and the obtained value was defined as the activity of the reporter gene induced by Wnt or the residual activity of the reporter gene after adding the compound to be tested. The residual activity was normalized by the activity induced by Wnt to get the relative residual activity. Then combine with the concentrations of the compound to be tested to plot a linear graph, and a dose-effect curve was fitted based on 4-parameter logistic fit. IC50 of the Wnt signaling pathway is determined as the concentration at which the relative residual activity is 0.5.

[4] = tested on: A-549 (Human lung adenocarcinoma cells); assay: MTT inhibition of tumor cell growth, A-549; conditions: Homo sapiens
Experimental: as §1, §2, §3, §4

[5] = tested on: SW-480 (human colon cancer cells); assay: MTT inhibition of tumor cell growth, SW-480; conditions: Homo sapiens
Experimental: as §1, §2, §3, §4

[6] = tested on: HL-60 (human promyelocytic leukemia cells); assay: MTT inhibition of tumor cell growth, HL-60; conditions: Homo sapiens
Experimental: as §1, §2, §3, §4

[7] = read-out: IC50 (μM), inhibitory activity on the Wnt signaling pathway
[8] = MCF7, 48 h, Table 2, derivatives having potential Michael reaction acceptor
[9] = SMMC-7721, 48 h, Table 2, derivatives having potential Michael reaction acceptor
[10] = A549, 48 h, Table 2, derivatives having potential Michael reaction acceptor
[11] = SW480, 48 h, Table 2, derivatives having potential Michael reaction acceptor, read-out: IC50 SW-480
[12] = HL-60, 48 h, Table 2, derivatives having potential Michael reaction acceptor
[13] = Table 10, HEK293T, Wnt3a conditioned medium, read-out: IC50 (μM), inhibitory activity on the Wnt signaling pathway
[14] = MCF7, 48 h, Table 1, 7-hydroxy derivatives of S-3
[15] = SMMC-7721, 48 h, Table 1, 7-hydroxy derivatives of S-3
[16] = Table 7 (second), derivatives modified on 7-hydroxyl of S-3, HEK293T, Wnt3a conditioned medium, read-out: IC50 (μM), inhibitory activity on the Wnt signaling pathway
[17] = A549, 48 h, Table 1, 7-hydroxy derivatives of S-3
[18] = SW480, 48 h, Table 1, 7-hydroxy derivatives of S-3, read-out: IC50 SW-480
[19] = HL-60, 48 h, Table 1, 7-hydroxy derivatives of S-3

With `C=C1C(=O)C23CC[C@H]1CC2[C@@]12CCC[C@@](C)(COC1=O)C2C[C@H]3OC(=O)c1cccs1` (stereo partly drawn) [Compound 1o] the IC50 ([1]; MCF7, Table 1, 7-hydroxy derivatives of S-3, 48 h) was 1.26 µM, the IC50 ([2]; SMMC-7721, Table 1, 7-hydroxy derivatives of S-3, 48 h) was 0.6 µM and the IC50 [3, 7] was 9.15 ± 1.14 µM. For the same compound, the IC50 ([4]; A549, Table 1, 7-hydroxy derivatives of S-3, 48 h) was 0.49 µM, the IC50 ([5]; SW480, Table 1, 7-hydroxy derivatives of S-3, 48 h, read-out: IC50 SW-480) was 0.56 µM and the IC50 ([6]; HL-60, Table 1, 7-hydroxy derivatives of S-3, 48 h) was 0.84 µM.
For `C=C1C(=O)[C@]23CC[C@H]1CC2[C@@]12CCC[C@@](C)(COC1=O)C2[C@H](CO)C3=O` (stereo partly drawn) [Compound 11], the IC50 [1, 8] was 3.94 µM, the IC50 [2, 9] was 2.48 µM and the IC50 ([3]; Table 9, HEK293T, Wnt3a conditioned medium, read-out: IC50(μM), inhibitory activity on the Wnt signaling pathway) was 6.89 ± 0.27 µM. The IC50 [4, 10] was 2.44 µM, the IC50 [5, 11] was 2.8 µM and the IC50 [6, 12] was 3.85 µM.
`C=C1C(=O)[C@@]23CC[C@@H](CC2[C@@]24CCC[C@@](C)(CN(CCO)C2)C14)C(=C)[C@@H]3O` (stereo partly drawn) [Compound 89] gave an IC50 ([1]; MCF7, Table 7 (first), alkaloid derivatives, 48 h) of 6.98 µM, an IC50 ([2]; SMMC-7721, Table 7 (first), alkaloid derivatives, 48 h) of 1.48 µM and an IC50 [3, 7] of 8.34 ± 0.9 µM. The IC50 ([4]; A549, Table 7 (first), alkaloid derivatives, 48 h) was 3.04 µM, the IC50 ([5]; SW480, Table 7 (first), alkaloid derivatives, 48 h, read-out: IC50 SW-480) was 9.84 µM and the IC50 ([6]; HL-60, Table 7 (first), alkaloid derivatives, 48 h) was 4.82 µM.
Work on `C=C1C(=O)[C@]23CC[C@H]1CC2[C@]1(COC(=O)N2CCOCC2)CCC[C@@](C)(COS(C)(=O)=O)C1CC3=O` (stereo partly drawn) [Compound 59] yielded an IC50 ([1]; MCF7, 48 h, Table 4, derivatives obtained by reduction of the lactonic ring) of 3.31 µM, an IC50 ([2]; SMMC-7721, 48 h, Table 4, derivatives obtained by reduction of the lactonic ring) of 3.95 µM and an IC50 [3, 13] of 43.8 ± 3.05 µM. The IC50 ([4]; A549, 48 h, Table 4, derivatives obtained by reduction of the lactonic ring) was 4.21 µM, the IC50 ([5]; SW480, 48 h, Table 4, derivatives obtained by reduction of the lactonic ring, read-out: IC50 SW-480) was 2.94 µM and the IC50 ([6]; HL-60, 48 h, Table 4, derivatives obtained by reduction of the lactonic ring) was 4.18 µM.
In the case of `C=C1C(=O)[C@]23CC[C@H]1CC2[C@@]12CCC[C@@](C)(COC1=O)C2C[C@@H]3S(=O)(=O)c1ccccc1[N+](=O)[O-]` (stereo partly drawn) [Compound 1v], the IC50 [1, 14] is reported as 11.1 µM, the IC50 [2, 15] is reported as 26.9 µM and the IC50 [3, 16] is reported as greater than 60 µM. For the same compound, the IC50 [4, 17] was 16.6 µM, the IC50 [5, 18] was 14.7 µM and the IC50 [6, 19] was 9.64 µM.
`C=C1C(=O)C23CC[C@H]1CC2[C@@]12CCC[C@@](C)(COC1=O)C2C[C@H]3OC(=O)CCCl` (stereo partly drawn) [Compound 1h] was tested, and the IC50 [1, 14] was 2.7 µM, the IC50 [2, 15] was 3.5 µM and the IC50 [3, 16] was 20.2 ± 0.99 µM. For the same compound, the IC50 [4, 17] was 2.61 µM, the IC50 [5, 18] was 3.38 µM and the IC50 [6, 19] was 4.59 µM.
`C=C1C(=O)[C@]23CC[C@H]1CC2[C@@]12CCC[C@@](C)(COC1)C2[C@H](CO)C3=O` (stereo partly drawn) [Compound 30] was tested, and the IC50 [1, 8] was 1.44 µM, the IC50 [2, 9] was 1.9 µM and the IC50 [3, 13] was 15.4 ± 1.5 µM. For the same compound, the IC50 [4, 10] was 0.77 µM, the IC50 [5, 11] was 1.53 µM and the IC50 [6, 12] was 1.94 µM.
